From ChEMBL document CHEMBL1150843, “Hortein, a new natural product from the fungus Hortaea werneckii associated with the sponge Aplysina aerophoba” (J Nat Prod, 2001)
Activity calls are given as the source filed them.

Experiments:
Assay type in all cases: functional, organism-based
[1] = system: Escherichia coli; assay: Antibacterial activity against Escherichia coli HB101 after 4 days by serial dilution test
[2] = system: Staphylococcus aureus; assay: Antibacterial activity against Staphylococcus aureus ATCC 25923 after 4 days by serial dilution test
[3] = system: Bacillus subtilis; assay: Antibacterial activity against Bacillus subtilis 168 after 4 days by serial dilution test; details: subsp. subtilis str. 168
[4] = system: Candida albicans; assay: Antifungal activity against Candida albicans after 4 days by serial dilution test
[5] = system: Spodoptera littoralis; assay: Insecticidal activity against Spodoptera littoralis larvae administered through artificial diet by chronic feeding assay

Measured: Activity

O=C1CCC(=O)c2c1c(O)c(O)c1c2-c2ccc(O)c3c(O)ccc-1c23
inactive: [1] | [2] | [3] | [4] | [5]
